Values joined by “and” are separate entries in the source; they are usually repeats but may differ in a detail not shown here. Equal entries are not always repeated.
Key:
Assay type in all cases: cell-based, human
[1] = system: DLD-1 resistant cell line clone #61 (p97 I620I/L); experiment: GI50 fold-change, resistant clone #61 vs parental; conditions: Clone #61, DLD-1, resistance generated with compound 4, T1859T/C / I620I/L; 72 hrs
Description: (§1) Dose titration of test compounds were conducted in Hct116, DLD-1, or LoVo cell lines. In brief, cells were plated in 384-well plates and a selected candidate drug compound was added in a 10-point 2-fold serial dilution.

[2] = system: Hct116 resistant cell line clone #25 (p97 P500T); experiment: GI50 fold-change, resistant clone #25 vs parental; conditions: Clone #25, Hct116, resistance generated with compound 4, C1498A / P500T; 72 hrs
Description: as §1

[3] = system: Hct116 resistant cell line clone #152 (p97 T688I); experiment: GI50 fold-change, resistant clone #152 vs parental; conditions: Clone #152, Hct116, resistance generated with compound 4, C2063T / T688I, 72 hrs
Description: (§2) Dose titration of test compounds were conducted in Hct116, DLD-1, or LoVo cell lines. In brief, cells were plated in 384-well plates and a selected candidate drug compound was added in a 10-point 2-fold serial dilution. […] Hct116 cells were plated at 50,000 cells per 15 cm dish and treated with GI50-GI90 doses of test compound for 2-4 weeks until individual colonies of cells were visible on the plate.

[4] = system: Hct116 resistant cell line clone #30 (p97 F516L); experiment: GI50 fold-change, resistant clone #30 vs parental; conditions: Clone #30, Hct116, resistance generated with compound 4, T1546C / F516L; 72 hrs
Description: as §1

[5] = system: DLD-1 resistant cell line clone #58 (p97 D649D/N); experiment: GI50 fold-change, resistant clone #58 vs parental; conditions: Clone #58, DLD-1, resistance generated with compound 4, G1945G/A / D649D/N; 72 hrs
Description: as §1

[6] = system: Hct116 resistant cell line clone #108 (p97 P646T); experiment: GI50 fold-change, resistant clone #108 vs parental; conditions: Clone #108, Hct116, resistance generated with compound 4, C1936A / P646T; 72 hrs
Description: as §2

[7] = system: DLD-1 resistant cell line clone #82 (p97 A569A/T); experiment: GI50 fold-change, resistant clone #82 vs parental; conditions: Clone #82, DLD-1, resistance generated with compound 4, G1705G/A / A569A/T; 72 hrs
Description: as §1

[8] = system: Hct116 resistant cell line clone #42 (p97 P472A); experiment: GI50 fold-change, resistant clone #42 vs parental; conditions: Clone #42, Hct116, resistance generated with compound 4, C1414G / P472A; 72 hrs
Description: as §1

[9] = system: DLD-1 resistant cell line clone #83 (p97 N660N/D); experiment: GI50 fold-change, resistant clone #83 vs parental; conditions: Clone #83, DLD-1, resistance generated with compound 4, A1978G/A / N660N/D; 72 hrs
Description: as §1

[10] = system: Hct116 resistant cell line clone #139 (p97 P472S); experiment: GI50 fold-change, resistant clone #139 vs parental; conditions: Clone #139, Hct116, resistance generated with compound 4, C1414T / P472S; 72 hrs
Description: as §1

[11] = system: Hct116 resistant cell line clone #45 (p97 F539I); experiment: GI50 fold-change, resistant clone #45 vs parental; conditions: Clone #45, Hct116, resistance generated with compound 4, T1615A / F539I; 72 hrs
Description: as §1

[12] = system: Hct116 resistant cell line clone #117 (p97 L482I); experiment: GI50 fold-change, resistant clone #117 vs parental; conditions: Clone #117, Hct116, resistance generated with compound 4, C1444A / L482I; 72 hrs
Description: as §1

[13] = system: LoVo resistant cell line clone #221 (p97 V474V/A); experiment: GI50 fold-change, resistant clone #221 vs parental; conditions: Clone #221, LoVo, resistance generated with compound 4, T1421C/T / V474V/A; 72 hrs
Description: as §2

[14] = system: DLD-1 resistant cell line clone #64 (p97 N660N/S); experiment: GI50 fold-change, resistant clone #64 vs parental; conditions: Clone #64, DLD-1, resistance generated with compound 4, A1979G/A / N660N/S; 72 hrs
Description: as §1

[15] = system: Hct116 resistant cell line clone #6 (p97 A528T); experiment: GI50 fold-change, resistant clone #6 vs parental; conditions: Clone #6, Hct116, resistance generated with compound 2, G1582 / A528T; 72 hrs
Description: as §1

[16] = system: DLD-1 resistant cell line clone #87 (p97 S541P); experiment: GI50 fold-change, resistant clone #87 vs parental; conditions: Clone #87, DLD-1, resistance generated with compound 4, T1621T/C / S541P; 72 hrs
Description: as §1

[17] = system: Hct116 resistant cell line clone #1 (p97 D649N); experiment: GI50 fold-change, resistant clone #1 vs parental; conditions: Clone #1, Hct116, resistance generated with compound 2, G1945A / D649N; 72 hrs
Description: as §1

[18] = system: Hct116 resistant cell line clone #90 (p97 Q473P); experiment: GI50 fold-change, resistant clone #90 vs parental; conditions: Clone #90, Hct116, resistance generated with compound 4, A1418C / Q473P; 72 hrs
Description: as §1

[19] = system: Hct116 resistant cell line clone #31 (p97 C535Y); experiment: GI50 fold-change, resistant clone #31 vs parental; conditions: Clone #31, Hct116, resistance generated with compound 4, G1604A / C535Y; 72 hrs
Description: as §1

[20] = system: Hct116 resistant cell line clone #27 (p97 T688A); experiment: GI50 fold-change, resistant clone #27 vs parental; conditions: Clone #27, Hct116, resistance generated with compound 4, A2062G / T688A; 72 hrs
Description: as §1

[21] = system: Hct116 resistant cell line clone #47 (p97 E498D); experiment: GI50 fold-change, resistant clone #47 vs parental; conditions: Clone #47, Hct116, resistance generated with compound 4, G1494T / E498D; 72 hrs
Description: as §1

[22] = system: Hct116 resistant cell line clone #180 (p97 A569T); experiment: GI50 fold-change, resistant clone #180 vs parental; conditions: Clone #180, Hct116, resistance generated with compound 4, G1705A / A569T; 72 hrs
Description: as §1

[23] = system: Hct116 resistant cell line clone #207 (p97 V485D); experiment: GI50 fold-change, resistant clone #207 vs parental; conditions: Clone #207, Hct116, resistance generated with compound 4, T1454A / V485D; 72 hrs
Description: as §1

[24] = system: Hct116 resistant cell line clone #33 (p97 P472L); experiment: GI50 fold-change, resistant clone #33 vs parental; conditions: Clone #33, Hct116, resistance generated with compound 4, C1415T / P472L; 72 hrs
Description: as §1

[25] = system: Hct116 resistant cell line clone #34 (p97 E470D/E); experiment: GI50 fold-change, resistant clone #34 vs parental; conditions: Clone #34, Hct116, resistance generated with compound 4, G1410T/G / E470D/E; 72 hrs
Description: as §1

[26] = system: Hct116 resistant cell line clone #29 (p97 N660K); experiment: GI50 fold-change, resistant clone #29 vs parental; conditions: Clone #29, Hct116, resistance generated with compound 4, C1980A / N660K; 72 hrs
Description: as §1

[27] = system: Hct116 resistant cell line clone #22 (p97 N660D); experiment: GI50 fold-change, resistant clone #22 vs parental; conditions: Clone #22, Hct116, resistance generated with compound 4, A1978G / N660D; 72 hrs
Description: as §1

[28] = system: Hct116 resistant cell line clone #137 (p97 T475I); experiment: GI50 fold-change, resistant clone #137 vs parental; conditions: Clone #137, Hct116, resistance generated with compound 4, C1424T / T475I; 72 hrs
Description: as §1

| Structure (SMILES) | Fold Change in GI50 Compared to Parental Cell Line [1] | Fold Change in GI50 Compared to Parental Cell Line [2] | Fold Change in GI50 Compared to Parental Cell Line [3] | Fold Change in GI50 Compared to Parental Cell Line [4] | Fold Change in GI50 Compared to Parental Cell Line [5] | Fold Change in GI50 Compared to Parental Cell Line [6] | Fold Change in GI50 Compared to Parental Cell Line [7] | Fold Change in GI50 Compared to Parental Cell Line [8] | Fold Change in GI50 Compared to Parental Cell Line [9] | Fold Change in GI50 Compared to Parental Cell Line [10] | Fold Change in GI50 Compared to Parental Cell Line [11] | Fold Change in GI50 Compared to Parental Cell Line [12] | Fold Change in GI50 Compared to Parental Cell Line [13] | Fold Change in GI50 Compared to Parental Cell Line [14] | Fold Change in GI50 Compared to Parental Cell Line [16] | also measured |
| --- | --- | --- | --- | --- | --- | --- | --- | --- | --- | --- | --- | --- | --- | --- | --- | --- |
| Cc1cc2c(C(N)=O)cccc2n1-c1nc2c(c(NCc3ccccc3)n1)CNCC2 [Compound 3, 1-[4-(benzylamino)-5H,6H,7H,8H-pyrido[4,3-d]pyrimidin-2-yl]-2-methyl-1H-indole-4-carboxamide] | 1.0 fold | 2.2 fold | 40.2 fold | 10.0 fold | 2.0 fold | 1.6 fold | 4.9 fold | 7.0 fold | 2.4 fold | 4.2 fold | 6.9 fold | 4.4 fold | 4.1 fold | 1.2 fold | 34.6 fold | Fold Change in GI50 Compared to Parental Cell Line [15]: 13.4 fold |
| COc1nc2ccccc2n1-c1nc2c(c(NCc3ccccc3)n1)CCCC2 [Compound 2, N-benzyl-2-(2-methoxy-1H-1,3-benzodiazol-1-yl)-5,6,7,8-tetrahydroquinazolin-4-amine] | 1.1 fold | – | 2.1 fold | – | 1.4 fold | 1.3 fold | – | – | 2.6 fold | – | – | – | 2.2 fold | 0.6 fold | 1.3 fold | Fold Change in GI50 Compared to Parental Cell Line [17]: 4.5 fold |
| Cc1cc2c(CN)cccc2n1-c1nc2c(c(NCc3ccccc3)n1)CCCC2 [Compound 6, 2-[4-(aminomethyl)-2-methyl-1H-indol-1-yl]-N-benzyl-5,6,7,8-tetrahydroquinazolin-4-amine] | 3.3 fold | 1.9 fold | 1.4 fold | 4.1 fold | 2.0 fold | 1.6 fold | 4.5 fold | 3.5 fold | 1.3 fold | 3.5 fold | 3.4 fold | 2.3 fold | 2.2 fold | 2.7 fold | 0.9 fold | Fold Change in GI50 Compared to Parental Cell Line [18]: 2.1 fold; Fold Change in GI50 Compared to Parental Cell Line [19]: 3.3 fold; Fold Change in GI50 Compared to Parental Cell Line ([3]; listed as compound 6): 1.4 fold and 1.42 fold; Fold Change in GI50 Compared to Parental Cell Line [20]: 2.3 fold; Fold Change in GI50 Compared to Parental Cell Line [21]: 1.8 fold; Fold Change in GI50 Compared to Parental Cell Line [22]: 3.4 fold; Fold Change in GI50 Compared to Parental Cell Line [23]: 2.7 fold; Fold Change in GI50 Compared to Parental Cell Line [24]: 5.3 fold; Fold Change in GI50 Compared to Parental Cell Line [25]: 2.7 fold; Fold Change in GI50 Compared to Parental Cell Line [26]: 3.8 fold; Fold Change in GI50 Compared to Parental Cell Line [27]: 1.8 fold; Fold Change in GI50 Compared to Parental Cell Line [28]: 2.8 fold |
